“And” between values parts separate entries of the source, which are not always exact repeats. Identical values can stand only once.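 Five concentrations, 48 hours, 96-well plates. The concentration for 50% growth inhibition is given as GI50. At the TGI there is no net growth.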
Legend:
Assay in all cases: inhibition of tumour cell growth, NCI panel, 48 h
A549 NSCLC = system: A549 NSCLC
BT-549 breast = system: BT-549 breast
HCT-116 colon = system: HCT-116 colon
KM12 colon = system: KM12 colon
OVCAR-3 ovarian = system: OVCAR-3 ovarian
SF-539 CNS = system: SF-539 CNS
SK-MEL-28 melanoma = system: SK-MEL-28 melanoma
SNB-19 CNS = system: SNB-19 CNS
TK-10 renal = system: TK-10 renal
UACC-257 melanoma = system: UACC-257 melanoma

SMILES | TGI (A549 NSCLC) | TGI (BT-549 breast) [µM] | TGI (HCT-116 colon) | TGI (KM12 colon) | TGI (OVCAR-3 ovarian) [µM] | TGI (SF-539 CNS) [µM] | TGI (SK-MEL-28 melanoma) | TGI (SNB-19 CNS) | TGI (TK-10 renal) [µM] | TGI (UACC-257 melanoma) | GI50 (A549 NSCLC) [µM] | GI50 (BT-549 breast) [µM] | GI50 (HCT-116 colon) [µM] | GI50 (KM12 colon) [µM] | GI50 (OVCAR-3 ovarian) [µM] | GI50 (SF-539 CNS) [µM] | GI50 (SK-MEL-28 melanoma) [µM] | GI50 (SNB-19 CNS) [µM] | GI50 (TK-10 renal) [µM] | GI50 (UACC-257 melanoma) [µM]
CC(Br)C(=O)NC(CO)C(=O)O (centres undefined) | > 100 µM | > 100 | > 100 µM | > 100 µM | > 100 | > 100 | > 100 µM | > 100 µM | > 100 | > 100 µM | – | – | – | – | – | – | – | – | – | –
CN[C@@H](C)C(=O)N[C@H]1CN(S(=O)(=O)c2cccc(S(=O)(=O)N3CC[C@H]4CC[C@@H](C(=O)NC(c5ccccc5)c5ccccc5)N4C(=O)[C@@H](NC(=O)[C@H](C)NC)C3)c2)CC[C@H]2CC[C@@H](C(=O)NC(c3ccccc3)c3ccccc3)N2C1=O | > 100 µM | < 0.0197 | 51.2 µM | 34.3 µM | 25.2 | 0.509 | 29.7 µM | 43.6 µM | > 100 | 50.2 µM | > 53.1 | < 0.01 | 18.4 | 16.7 | 12.2 | < 0.01 | 15.6 | 21.2 | 55.9 | 18
COc1cc2c(cc1Nc1nc(N3CCc4ccccc43)c3cc[nH]c3n1)N(C(=O)CN(C)C)CC2 | 8.88 µM | 15.7 | 2.91 µM | 2.81 µM | 4.98 | 10.8 | 3.38 µM | 11.5 µM | 3.37 | 9.3 µM | 3.34 | 8.38 | 1.33 | 1.49 | 2.08 | 4.88 | 1.4 | 4.44 | 1.67 | 4.25
CCCCCOc1ccc(/C=N/Nc2cc(C)nc3ccc(Cl)cc23)cc1 | 3.52 µM | 3.28 | 2.29 µM | 3.41 µM | 3.58 | 3.3 | 3.09 µM | 3.41 µM | 3.16 | 3.27 µM | 1.9 | 1.74 | 1.04 | 1.79 | 1.97 | 1.86 | 1.69 | 1.87 | 1.77 | 1.72
N#CC1(c2ccc(NC(=O)c3cccnc3NCc3ccncc3)cc2)CCCC1 | > 79.7 µM | 61 | 32 µM | 73 µM | 70 | 29.9 | > 89.8 µM | > 100 µM | > 74.3 | > 68.9 µM | 17.3 | 10.2 | 12.1 | 23 | 14.8 | 3.37 | 17.3 | 27.7 | 23.5 | 17.7
C[C@]12CC[C@H]3[C@@H](CCC4=CC(=O)CC[C@@]43C)[C@@H]1CC[C@@H]2c1csc(N)n1 | 31.6 µM | 21.3 | 15.3 µM | 11.6 µM | 12.3 | 27 | 26 µM | 31.2 µM | 43 | 13 µM | 5.77 | 6.12 | 3.15 | 3 | 3.38 | 9.2 | 10 | 10.2 | 11.3 | 2.75
COC1N(C2CC(O)C(CO)O2)C(=O)NC(=O)C1(F)Br (centres undefined) | 50 µM and > 100 µM | > 100 | 50 µM and > 100 µM | 50 µM and > 100 µM | > 100 | 50 | 50 µM and > 100 µM | 50 µM and > 100 µM | > 100 | 50 µM and > 100 µM | 3.22 | – | 12.6 | 30.4 | > 50 | 6.8 | 30 | 26.6 | > 50 | 42.8
COc1ccc2c(N)ncc(C#Cc3cc(C(=O)Nc4ccc(CN5CCN(C)CC5)c(C(F)(F)F)c4)cnc3C)c2c1 | 1.28 µM | 14.9 | 1.05 µM | 2.64 µM | 5.29 | 1.12 | 1.81 µM | 2.38 µM | 2.19 | 9.22 µM | 0.576 | 6.02 | 0.483 | 0.079 | 1.31 | 0.597 | 0.66 | 0.933 | 0.821 | 1.78
O=C(/C=C/C12c3ccccc3C(c3ccccc31)C1C(=O)NC(=O)C12)c1ccccn1 (centres undefined) | 6.86 µM | 3.69 | 3.14 µM | 3.03 µM | 2.88 | 4.65 | 3.86 µM | 3.22 µM | 5.31 | 3.56 µM | 2.34 | 1.82 | 1.42 | 1.43 | 1.45 | 2.04 | 2.03 | 1.53 | 2.35 | 1.88
CCNc1nc(O)c(/C=C2\C=Nc3ncccc32)s1 | > 100 µM | 5.17 | > 100 µM | 12.4 µM | 8.49 | 3.7 | 13.8 µM | > 100 µM | 95 | 15.5 µM | 16.5 | 1.66 | 2.5 | 3.05 | 2.66 | 1.51 | 2.72 | 3.6 | 2.78 | 4.17
CSC1=Nc2c(c(C)c(C)n2COC(CO)CO)C2=NC(=O)CN12 | > 100 µM | > 100 | > 100 µM | > 100 µM | > 100 | > 100 | > 100 µM | > 100 µM | > 100 | > 100 µM | > 100 | > 100 | > 100 | > 100 | > 100 | > 100 | > 100 | > 100 | > 100 | > 100
OC1(c2ccc(Cl)c(C(F)(F)F)c2)CCN(CCCC(c2ccc(F)cc2)c2ccc(F)cc2)CC1 | 1.58 µM | 2.1 | 1.41 µM | 1.62 µM | 1.63 | 1.69 | 1.58 µM | 3.86 µM | 1.69 | 1.51 µM | 0.837 | 1.09 | 0.734 | 0.864 | 0.888 | 0.943 | 0.889 | 1.13 | 0.89 | 0.826
COC(=O)OC1C(O[C@H]2C[C@H]3[C@@H]4CC=C5C[C@@H](O)CC[C@]5(C)[C@H]4CC[C@]3(C)[C@H]2[C@H](C)C(=O)CCC(C)C)OCC(O)C1OC1OCC(O)C(O)C1OC(=O)c1ccc(OC)cc1 (some centres undefined) | 5.24 µM | 3.45 | > 27.5 µM | 9.86 µM | 16.8 | 0.0091 | 0.0161 µM | 2.24 µM | 17.5 | 0.0562 µM | 0.0125 | < 0.00275 | 0.00886 | 0.039 | 0.345 | < 0.00275 | 0.0043 | 0.0155 | 0.496 | 0.00543
Cn1c([N+](=O)[O-])cnc1C=C1C(=O)c2ccccc2C1=O | 41.3 µM | 12.8 | 13.1 µM | 32.7 µM | 14.8 | 7.51 | 7.4 µM | 44.5 µM | 21.8 | 14.7 µM | 12.2 | 3.86 | 3.77 | 11.1 | 4.67 | 2.6 | 2.56 | 15.1 | 7.07 | 3.12
COc1ccc2c(c1)c(-c1nc(-c3c[nH]c4ncccc34)cs1)cn2CCCN1CCOCC1 | 13.1 µM | 5.87 | 4.04 µM | 6.88 µM | 7.93 | 3.67 | 3.83 µM | 8.71 µM | 13.6 | 3.81 µM | 4.04 | 2 | 1.85 | 2.41 | 2.57 | 1.74 | 1.95 | 2.86 | 3.48 | 2.04

— PubChem BioAssay (NCI)
